{"source": "patent US10689394B2", "about": "“Thieno[2,3-b]pyridine derivative, quinoline derivative, and use thereof” (The University of Tokyo, priority 2016, dated 2020)", "data": [{"target": "T1, binding between ALS-related mutant SOD1 (Flag-SOD1 G93A) and Derlin-1 (Derlin-1-HA) (Homo sapiens, UniProt P00441+Q9BUN8, G94A)", "T1 construct": "expressed in transfected cells; host or cells: HEK293A", "T1 sequence (P00441 whole entry G94A, species assumed)": "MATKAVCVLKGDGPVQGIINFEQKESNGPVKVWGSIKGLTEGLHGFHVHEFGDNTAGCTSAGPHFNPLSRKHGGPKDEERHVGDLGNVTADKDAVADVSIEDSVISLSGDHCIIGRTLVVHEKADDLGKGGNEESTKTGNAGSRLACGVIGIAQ", "T1 sequence (Q9BUN8 whole entry, species assumed, stated change not applied)": "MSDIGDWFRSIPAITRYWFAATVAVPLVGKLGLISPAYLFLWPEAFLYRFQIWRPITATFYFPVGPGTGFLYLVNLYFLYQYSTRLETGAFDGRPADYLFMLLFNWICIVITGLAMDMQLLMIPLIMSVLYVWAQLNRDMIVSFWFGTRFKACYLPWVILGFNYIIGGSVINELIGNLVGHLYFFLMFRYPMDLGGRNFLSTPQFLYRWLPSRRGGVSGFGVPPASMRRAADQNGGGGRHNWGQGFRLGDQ", "assay": "Cell-based co-immunoprecipitation assay of mutant SOD1 (G93A)-Derlin-1 binding", "parameters": "key to Activity value (score): a compound exhibiting no inhibitory activity is set at 0; a compound exhibiting inhibitory activity is set at 1; a compound exhibiting significant inhibitory activity is set at 2; a compound having higher inhibitory activity than the compound of Example 1 is set at 3", "conditions": "0.625 μM, 1.25 μM, 2.5 μM and 5 μM added to HEK293A cell culture; FIG. 1", "method": "(§1) As cells, human embryonic kidney-derived, Human Embryonic Kidney 293A (HEK293A) cells were used. The cells were cultured in High Glucose Dulbecco's modified Eagle's medium (DMEM: 4.5 mg/ml glucose, Sigma) supplemented with complement-inactivated 10% fetal bovine serum (FBS, Vitromex) and 100 units/mL Penicillin G (Meiji), which was placed in an incubator set at conditions of 37° C. and 5% CO2.\n(§2) Transfection into the HEK293A cells was carried out using PEI-Max (Polyscience) at a ratio of 3 μL of PEI-Max to 1 μg of plasmid. DMEM was mixed with PEI-Max, and the mixture was then left at rest for 5 minutes. Thereafter, the reaction mixture was added to the plasmid DNA dissolved in DMEM, and the thus obtained mixture was further left at rest for 15 minutes. After seeding, the culture was carried out for 12 to 24 hours, and the resultant was then added to a culture medium of cells, in which the medium had been exchanged with DMEM supplemented only with 10% FBS.\n(§3) pcDNA3.0-Derlin-1-HA, pcDNA3.0-Flag-SOD1 G93A, and 123 types of other mutants.\n(§4) In the lysis of HEK293A cells for use in a co-immunoprecipitation experiment, an IP lysis buffer (20 mM Tris-HCl (pH 7.5), 150 mM NaCl, 10 mM EDTA (pH 8.0), 1% Triton-X 100, 5 μg/mL leupeptin, and 1 mM phenylmethylsulfonyl fluoride) was used.\n(§5) After the transfection on a 24-well plate, the cells were cultured for 12 hours or 24 hours, and the obtained cell culture was exchanged with 200 μL of medium. Thereafter, 1% DMSO or various types of compounds having each different concentration were added into the culture. Thirty-six hours or twenty-four hours later, the cells were incubated in the IP lysis buffer (300 μL/well) at 4° C. for 25 minutes, so that the cells were lysed. The cell lysate was centrifuged at 4° C. at 15000 rpm for 10 minutes, and a supernatant was then recovered. To this supernatant, Anti-Flag M2 affinity gel was added in a liquid amount of 20 μL, and they were allowed to react with each other by subjecting the obtained mixture to inversion mixing at 4° C. for 25 minutes. After completion of the reaction, a supernatant was removed, and the residue was washed twice with High salt wash buffer (1% Triton X 100, 500 mM NaCl, 20 mM Tris-HCl (pH 7.5), and 5 mM EGTA), and was then washed once with Low salt wash buffer (150 mM NaCl, 20 mM Tris-HCl (pH 7.5), and 5 mM EGTA). Finally, 50 μL of a 2×SDS sample buffer was added to the resultant, and the obtained mixture was then boiled at 98° C. for 3 minutes to obtain an SDS-PAGE sample. Regarding the lysate, a 2×SDS sample buffer was added in an amount equal to the supernatant, and the obtained mixture was then boiled at 98° C. for 3 minutes to obtain an SDS-PAGE sample.\n(§6) After completion of SDS-PAGE, a protein was transferred from the gel into a polyvinylidene difluoride membrane (PVDF) ([…], Pall), and was then blocked with TBS-T (150 mM NaCl, 50 mM Tris-HCl (pH 8.0), and 0.05% Tween 20) supplemented with 5% skimmed milk at room temperature for 2 hours or more. Thereafter, a primary antibody diluted with TBS-T supplemented with 5% bovine serum albumin and 0.1% NaN3 was allowed to bind to each molecule on the PVDF membrane at 4° C. for 12 hours or more. After completion of the reaction, a secondary antibody (HRP-linked 2nd antibody) diluted with TBS-T supplemented with 5% skimmed milk was allowed to bind to the primary antibody at room temperature for 1 hour. Thereafter, the resultant was washed with TBS-T for 15 minutes, 3 or more times, and detection was then carried out using an enhanced chemiluminescence (ECL) system.\n(§7) With regard to the compounds of the present invention (Example Compound 1 to Example Compound 47), whether or not the present compound can inhibit the binding between ALS-related mutant SOD1 and Derlin-1 in a cell by being added into a cell culture solution was examined according to a co-immunoprecipitation experiment. […]", "values": [{"compound": "Nc1c(C(=O)Nc2ccncc2)sc2nc(-c3cccnc3)ccc12", "note": "[Example 4, 3-amino-N-(4-pyridinyl)-6-(3-pyridinyl)thieno[2,3-b]pyridine-2-carboxamide]", "binding between mutant SOD1 and Derlin-1 (co-precipitated Derlin-1, IB:HA band)": "the binding between mutant SOD1 and Derlin-1 was inhibited"}]}, {"target": "T1, binding between ALS-related mutant SOD1 (Flag-SOD1 G93A) and Derlin-1 (Derlin-1-HA)", "assay": "Cell-based co-immunoprecipitation assay of mutant SOD1 (G93A)-Derlin-1 binding", "parameters": "key to Activity value (score): a compound exhibiting no inhibitory activity is set at 0; a compound exhibiting inhibitory activity is set at 1; a compound exhibiting significant inhibitory activity is set at 2; a compound having higher inhibitory activity than the compound of Example 1 is set at 3", "conditions": "assay concentration 2.6 μM; HEK293A cells overexpressing Flag-SOD1 G93A and Derlin-1-HA", "method": "as §1, §2, §3, §4, §5, §6, §7", "values": [{"compound": "Nc1c(C(=O)Nc2ccncc2)sc2nc(-c3ccccn3)ccc12", "note": "[Example 6, 3-amino-N-(4-pyridinyl)-6-(2-pyridinyl)thieno[2,3-b]pyridine-2-carboxamide]", "Activity value (score)": 1}]}, {"target": "T1, binding between ALS-related mutant SOD1 (Flag-SOD1 G93A) and Derlin-1 (Derlin-1-HA)", "assay": "Cell-based co-immunoprecipitation assay of mutant SOD1 (G93A)-Derlin-1 binding", "parameters": "key to Activity value (score): a compound exhibiting no inhibitory activity is set at 0; a compound exhibiting inhibitory activity is set at 1; a compound exhibiting significant inhibitory activity is set at 2; a compound having higher inhibitory activity than the compound of Example 1 is set at 3", "conditions": "assay concentration 5 μM; HEK293A cells overexpressing Flag-SOD1 G93A and Derlin-1-HA", "method": "as §1, §2, §3, §4, §5, §6, §7", "values": [{"compound": "Nc1c(C(=O)Nc2ccncc2)sc2nc(-c3cccnc3)ccc12", "note": "[Example 4, 3-amino-N-(4-pyridinyl)-6-(3-pyridinyl)thieno[2,3-b]pyridine-2-carboxamide]", "Activity value (score)": 2}, {"compound": "CC#CCN(C(=O)c1sc2nc(-c3cccnc3)ccc2c1N)c1ccccc1", "note": "[Example 9, 3-amino-N-(2-butynyl)-N-phenyl-6-(3-pyridinyl)thieno[2,3-b]pyridine-2-carboxamide]", "Activity value (score)": 1}]}, {"target": "T1, binding between ALS-related mutant SOD1 (Flag-SOD1 G93A) and Derlin-1 (Derlin-1-HA)", "assay": "Cell-based co-immunoprecipitation assay of mutant SOD1 (G93A)-Derlin-1 binding", "parameters": "key to Activity value (score): a compound exhibiting no inhibitory activity is set at 0; a compound exhibiting inhibitory activity is set at 1; a compound exhibiting significant inhibitory activity is set at 2; a compound having higher inhibitory activity than the compound of Example 1 is set at 3", "conditions": "assay concentration 10 μM; HEK293A cells overexpressing Flag-SOD1 G93A and Derlin-1-HA", "method": "as §1, §2, §3, §4, §5, §6, §7", "values": [{"compound": "C/C=C/CN(C(=O)c1sc2nc(-c3cccnc3)ccc2c1N)c1ccccc1", "note": "[Example 5, 3-amino-N-(trans-2-butenyl)-N-phenyl-6-(3-pyridinyl)thieno[2,3-b]pyridine-2-carboxamide]", "Activity value (score)": 2}]}, {"target": "T1, binding between ALS-related mutant SOD1 (Flag-SOD1 G93A) and Derlin-1 (Derlin-1-HA)", "assay": "Cell-based co-immunoprecipitation assay of mutant SOD1 (G93A)-Derlin-1 binding", "parameters": "key to Activity value (score): a compound exhibiting no inhibitory activity is set at 0; a compound exhibiting inhibitory activity is set at 1; a compound exhibiting significant inhibitory activity is set at 2; a compound having higher inhibitory activity than the compound of Example 1 is set at 3", "conditions": "assay concentration 20 μM; HEK293A cells overexpressing Flag-SOD1 G93A and Derlin-1-HA", "method": "as §1, §2, §3, §4, §5, §6, §7", "values": [{"compound": "Nc1c(C(=O)Nc2ccncc2)sc2nc(-c3cncnc3)ccc12", "note": "[Example 33, 3-amino-N-(4-pyridinyl)-6-(5-pyrimidinyl)thieno[2,3-b]pyridine-2-carboxamide]", "Activity value (score)": 1}, {"compound": "C=CCN(C(=O)c1sc2nc(-c3cccnc3)ccc2c1N)c1ccc(I)cc1", "note": "[Example 12, N-allyl-3-amino-N-(4-iodophenyl)-6-(3-pyridinyl)thieno[2,3-b]pyridine-2-carboxamide]", "Activity value (score)": 2}, {"compound": "Nc1c(C(=O)N(CC=C2CCCC2)c2ccccc2)sc2nc(-c3cccnc3)ccc12", "note": "[Example 40, 3-amino-N-(2-cyclopentylideneethyl)-N-phenyl-6-(3-pyridinyl)thieno[2,3-b]pyridine-2-carboxamide]", "Activity value (score)": 1}, {"compound": "CCCN(C(=O)c1sc2nc(-c3cccnc3)ccc2c1N)c1ccc(F)c(F)c1F", "note": "[Example 11, N-n-propyl-3-amino-N-(2,3,4-trifluorophenyl)-6-(3-pyridinyl)thieno[2,3-b]pyridine-2-carboxamide]", "Activity value (score)": 2}, {"compound": "CC1(C)CCN(C(=O)c2sc3nc(-c4ccncc4)ccc3c2N)c2ccccc21", "note": "[Example 44]", "Activity value (score)": 1}, {"compound": "C=CCN(C(=O)c1sc2nc(-c3ccncc3)ccc2c1N)c1cc(F)cc(F)c1", "note": "[Example 22, N-allyl-3-amino-N-(3,5-difluorophenyl)-6-(4-pyridinyl)thieno[2,3-b]pyridine-2-carboxamide]", "Activity value (score)": 2}, {"compound": "C=CCN(C(=O)c1sc2nc(-c3ccncc3)ccc2c1N)c1ccc(F)c(F)c1", "note": "[Example 19, N-allyl-3-amino-N-(3,4-difluorophenyl)-6-(4-pyridinyl)thieno[2,3-b]pyridine-2-carboxamide]", "Activity value (score)": 2}, {"compound": "C=C(C)CN(C(=O)c1sc2nc(-c3cccnc3)ccc2c1N)c1ccc(F)cc1", "note": "[Example 34, 3-amino-N-(4-fluorophenyl)-N-(2-methylprop-2-en-1-yl)-6-(3-pyridinyl)thieno[2,3-b]pyridine-2-carboxamide]", "Activity value (score)": 1}, {"compound": "C=CCN(C(=O)c1sc2nc(-c3cccnc3)ccc2c1N)c1cc(F)ccc1F", "note": "[Example 17, N-allyl-3-amino-N-(2,5-difluorophenyl)-6-(3-pyridinyl)thieno[2,3-b]pyridine-2-carboxamide]", "Activity value (score)": 2}, {"compound": "C#CCOC/C=C\\CN(C(=O)c1sc2nc(-c3cccnc3)ccc2c1N)c1ccccc1", "note": "[Example 36]", "Activity value (score)": 1}, {"compound": "C=CCN(C(=O)c1sc2nc(-c3ccncc3)ccc2c1N)c1cccc(S(F)(F)(F)(F)F)c1", "note": "[Example 23, N-allyl-3-amino-N-(3-(pentafluoro-λ^6-sulfanyl)phenyl)-6-(4-pyridinyl)thieno[2,3-b]pyridine-2-carboxamide]", "Activity value (score)": 2}, {"compound": "C=CCN(C(=O)c1sc2nc(-c3cccnc3)ccc2c1N)c1cc(F)cc(F)c1", "note": "[Example 20, N-allyl-3-amino-N-(3,5-difluorophenyl)-6-(3-pyridinyl)thieno[2,3-b]pyridine-2-carboxamide]", "Activity value (score)": 2}, {"compound": "Nc1c(C(=O)Nc2ccc(C(F)(F)F)cc2)sc2nc(-c3cccnc3)ccc12", "note": "[Example 29, 3-amino-6-(3-pyridinyl)-N-(4-(trifluoromethyl)phenyl)thieno[2,3-b]pyridine-2-carboxamide]", "Activity value (score)": 1}, {"compound": "C=CCN(C(=O)c1sc2nc(-c3cccnc3)ccc2c1N)c1cccc(S(F)(F)(F)(F)F)c1", "note": "[Example 21, N-allyl-3-amino-N-(3-(pentafluoro-λ^6-sulfanyl)phenyl)-6-(3-pyridinyl)thieno[2,3-b]pyridine-2-carboxamide]", "Activity value (score)": 2}, {"compound": "CC(C)=CCN(C(=O)c1ccc2nc(-c3cccnc3)ccc2c1N)c1ccccc1", "note": "[Example 42, 5-Amino-N-phenyl-N-prenyl-2-(pyridin-3-yl)quinoline-6-carboxamide]", "Activity value (score)": 1}, {"compound": "CC(C)=CCN(C(=O)c1sc2nc(-c3cccnc3)ccc2c1N)c1ccncc1", "note": "[Example 39, 3-amino-N-prenyl-N-(4-pyridinyl)-6-(3-pyridinyl)thieno[2,3-b]pyridine-2-carboxamide]", "Activity value (score)": 1}, {"compound": "Nc1c(C(=O)Nc2cccc(C(F)(F)F)c2)sc2nc(-c3ccncc3)ccc12", "note": "[Example 31, 3-amino-6-(4-pyridinyl)-N-(3-(trifluoromethyl)phenyl)thieno[2,3-b]pyridine-2-carboxamide]", "Activity value (score)": 1}, {"compound": "CC(C)=CCN(C(=O)c1sc2nc(-c3cccnc3)ccc2c1N)c1ccccc1", "note": "[Example 13, N-(3-methyl-2-butenyl)-3-amino-N-phenyl-6-(3-pyridinyl)thieno[2,3-b]pyridine-2-carboxamide]", "Activity value (score)": 2}, {"compound": "C=CCN(C(=O)c1sc2nc(-c3cccnc3)ccc2c1N)c1ccc(F)cc1F", "note": "[Example 15, N-allyl-3-amino-N-(2,4-difluorophenyl)-6-(3-pyridinyl)thieno[2,3-b]pyridine-2-carboxamide]", "Activity value (score)": 2}, {"compound": "Nc1c(C(=O)Nc2cccc3ccccc23)sc2nc(-c3cccnc3)ccc12", "note": "[Example 24]", "Activity value (score)": 1}, {"compound": "CC1(C)CCN(C(=O)c2sc3nc(-c4cccnc4)ccc3c2N)c2ccccc21", "note": "[Example 41]", "Activity value (score)": 3}, {"compound": "COc1ccc(N(CC=C(C)C)C(=O)c2sc3nc(-c4ccncc4)ccc3c2N)cc1", "note": "[Example 46, 3-amino-N-(4-methoxyphenyl)-N-prenyl-6-(4-pyridinyl)thieno[2,3-b]pyridine-2-carboxamide]", "Activity value (score)": 2}, {"compound": "C=CCN(C(=O)c1sc2nc(-c3cccnc3)ccc2c1N)c1cc(F)ccc1C", "note": "[Example 18, N-allyl-3-amino-N-(5-fluoro-2-methylphenyl)-6-(3-pyridinyl)thieno[2,3-b]pyridine-2-carboxamide]", "Activity value (score)": 2}, {"compound": "C#CCN(C(=O)c1sc2nc(-c3cccnc3)ccc2c1N)c1ccc(F)cc1", "note": "[Example 35, 3-amino-N-(4-fluorophenyl)-N-(prop-2-yn-1-yl)-6-(3-pyridinyl)thieno[2,3-b]pyridine-2-carboxamide]", "Activity value (score)": 1}]}]}
